Assays:
Assay type in all cases: cell-based
[1] = target: proteins of U3A human fibrosarcoma cells (4462 proteins detected) (Homo sapiens, UniProt Q6YN16); conditions: protein HSDL2; U3A cells
[2] = target: proteins of U3A human fibrosarcoma cells (4462 proteins detected) (Homo sapiens, UniProt Q93008); conditions: protein USP9X; soluble abundance after heat, U3A cells
[3] = target: proteins of U3A human fibrosarcoma cells (4462 proteins detected) (Homo sapiens, UniProt O75635); conditions: protein SERPINB7; U3A, 10 μM, 2 h
[4] = target: proteins of U3A human fibrosarcoma cells (4462 proteins detected) (Homo sapiens, UniProt Q969G3); conditions: protein SMARCE1, U3A cells
[5] = target: proteins of U3A human fibrosarcoma cells (4462 proteins detected) (Homo sapiens, UniProt P52294); conditions: protein KPNA1; U3A cells
proteins of U3A human fibrosarcoma cells (4462 proteins detected) (Homo sapiens, UniProt P52294), sequence (P52294 whole entry): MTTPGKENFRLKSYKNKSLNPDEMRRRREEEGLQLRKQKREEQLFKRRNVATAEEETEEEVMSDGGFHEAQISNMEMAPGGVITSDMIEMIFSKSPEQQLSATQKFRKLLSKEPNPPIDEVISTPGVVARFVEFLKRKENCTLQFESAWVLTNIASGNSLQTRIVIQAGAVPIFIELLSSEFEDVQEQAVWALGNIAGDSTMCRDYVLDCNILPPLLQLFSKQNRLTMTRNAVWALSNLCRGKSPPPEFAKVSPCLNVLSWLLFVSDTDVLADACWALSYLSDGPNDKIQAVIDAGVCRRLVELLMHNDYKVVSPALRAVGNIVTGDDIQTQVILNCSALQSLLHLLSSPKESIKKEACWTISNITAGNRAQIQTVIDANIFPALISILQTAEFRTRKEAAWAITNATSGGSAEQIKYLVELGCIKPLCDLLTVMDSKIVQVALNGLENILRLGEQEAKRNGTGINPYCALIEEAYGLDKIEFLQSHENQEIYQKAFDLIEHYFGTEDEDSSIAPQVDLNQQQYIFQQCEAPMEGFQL

[6] = target: proteins of U3A human fibrosarcoma cells (4462 proteins detected) (Homo sapiens, UniProt Q9NQT5); conditions: protein EXOSC3; U3A cells
proteins of U3A human fibrosarcoma cells (4462 proteins detected) (Homo sapiens, UniProt Q9NQT5), sequence (Q9NQT5 whole entry): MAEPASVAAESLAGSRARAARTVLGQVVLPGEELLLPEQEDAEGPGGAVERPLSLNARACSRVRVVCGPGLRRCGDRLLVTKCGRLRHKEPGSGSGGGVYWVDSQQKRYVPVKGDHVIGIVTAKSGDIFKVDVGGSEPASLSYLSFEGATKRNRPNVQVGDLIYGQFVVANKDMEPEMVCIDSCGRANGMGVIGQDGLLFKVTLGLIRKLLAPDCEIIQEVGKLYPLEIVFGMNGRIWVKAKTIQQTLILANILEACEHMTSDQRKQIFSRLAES

[7] = target: proteins of U3A human fibrosarcoma cells (4462 proteins detected) (Homo sapiens, UniProt P35221); conditions: protein CTNNA1; U3A, 10 μM, 2 h
[8] = target: proteins of U3A human fibrosarcoma cells (4462 proteins detected) (Homo sapiens, UniProt Q8N163); conditions: protein CCAR2; U3A cells
[9] = target: proteins of U3A human fibrosarcoma cells (4462 proteins detected) (Homo sapiens, UniProt O75400); conditions: protein PRPF40A; U3A cells
[10] = target: proteins of U3A human fibrosarcoma cells (4462 proteins detected) (Homo sapiens, UniProt Q9BXY0); conditions: protein MAK16; soluble abundance after heat, U3A cells
[11] = target: proteins of U3A human fibrosarcoma cells (4462 proteins detected) (Homo sapiens, UniProt Q8N9N8); conditions: protein EIF1AD; U3A, 10 μM, 2 h
[12] = target: proteins of U3A human fibrosarcoma cells (4462 proteins detected) (Homo sapiens, UniProt O14976); conditions: protein GAK; U3A, 10 μM, 2 h
proteins of U3A human fibrosarcoma cells (4462 proteins detected) (Homo sapiens, UniProt O14976), sequence (O14976 whole entry): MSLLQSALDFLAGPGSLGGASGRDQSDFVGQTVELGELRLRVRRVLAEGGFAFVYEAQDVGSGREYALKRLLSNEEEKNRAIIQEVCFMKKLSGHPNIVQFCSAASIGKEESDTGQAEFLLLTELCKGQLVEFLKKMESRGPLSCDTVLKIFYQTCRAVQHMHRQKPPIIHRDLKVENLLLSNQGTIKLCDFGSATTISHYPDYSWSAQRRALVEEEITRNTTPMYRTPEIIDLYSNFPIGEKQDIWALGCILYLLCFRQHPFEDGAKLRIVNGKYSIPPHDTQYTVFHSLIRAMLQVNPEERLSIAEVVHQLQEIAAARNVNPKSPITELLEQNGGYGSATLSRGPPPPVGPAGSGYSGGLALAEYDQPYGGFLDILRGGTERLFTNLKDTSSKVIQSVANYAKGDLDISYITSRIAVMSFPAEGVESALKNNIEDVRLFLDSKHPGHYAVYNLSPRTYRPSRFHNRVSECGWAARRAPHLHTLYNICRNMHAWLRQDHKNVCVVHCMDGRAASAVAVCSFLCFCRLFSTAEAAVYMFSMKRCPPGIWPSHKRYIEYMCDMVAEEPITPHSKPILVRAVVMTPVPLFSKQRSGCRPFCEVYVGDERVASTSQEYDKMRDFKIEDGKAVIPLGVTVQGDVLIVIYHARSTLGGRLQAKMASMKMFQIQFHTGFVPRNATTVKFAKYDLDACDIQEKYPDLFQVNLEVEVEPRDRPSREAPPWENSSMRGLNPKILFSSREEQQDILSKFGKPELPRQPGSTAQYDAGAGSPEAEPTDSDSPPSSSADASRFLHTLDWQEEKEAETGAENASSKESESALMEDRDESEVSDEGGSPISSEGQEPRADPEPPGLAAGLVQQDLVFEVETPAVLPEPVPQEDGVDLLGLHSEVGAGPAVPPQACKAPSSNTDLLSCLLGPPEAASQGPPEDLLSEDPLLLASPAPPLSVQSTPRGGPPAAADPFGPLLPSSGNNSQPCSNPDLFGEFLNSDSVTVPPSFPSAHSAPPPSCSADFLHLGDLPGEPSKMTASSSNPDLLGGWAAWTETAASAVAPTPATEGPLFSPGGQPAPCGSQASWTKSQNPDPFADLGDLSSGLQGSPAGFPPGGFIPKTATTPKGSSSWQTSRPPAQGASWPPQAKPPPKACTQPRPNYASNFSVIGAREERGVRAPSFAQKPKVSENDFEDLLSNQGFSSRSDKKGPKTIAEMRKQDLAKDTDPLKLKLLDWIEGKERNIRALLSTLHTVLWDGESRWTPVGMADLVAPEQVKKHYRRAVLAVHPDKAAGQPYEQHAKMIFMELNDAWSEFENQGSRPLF

[13] = target: proteins of U3A human fibrosarcoma cells (4462 proteins detected) (Homo sapiens, UniProt Q9UFW8); conditions: protein CGGBP1; soluble abundance after heat, U3A cells
[14] = target: proteins of U3A human fibrosarcoma cells (4462 proteins detected) (Homo sapiens, UniProt Q9H8H0); conditions: protein NOL11; soluble abundance after heat, U3A cells
proteins of U3A human fibrosarcoma cells (4462 proteins detected) (Homo sapiens, UniProt Q9H8H0), sequence (Q9H8H0 whole entry): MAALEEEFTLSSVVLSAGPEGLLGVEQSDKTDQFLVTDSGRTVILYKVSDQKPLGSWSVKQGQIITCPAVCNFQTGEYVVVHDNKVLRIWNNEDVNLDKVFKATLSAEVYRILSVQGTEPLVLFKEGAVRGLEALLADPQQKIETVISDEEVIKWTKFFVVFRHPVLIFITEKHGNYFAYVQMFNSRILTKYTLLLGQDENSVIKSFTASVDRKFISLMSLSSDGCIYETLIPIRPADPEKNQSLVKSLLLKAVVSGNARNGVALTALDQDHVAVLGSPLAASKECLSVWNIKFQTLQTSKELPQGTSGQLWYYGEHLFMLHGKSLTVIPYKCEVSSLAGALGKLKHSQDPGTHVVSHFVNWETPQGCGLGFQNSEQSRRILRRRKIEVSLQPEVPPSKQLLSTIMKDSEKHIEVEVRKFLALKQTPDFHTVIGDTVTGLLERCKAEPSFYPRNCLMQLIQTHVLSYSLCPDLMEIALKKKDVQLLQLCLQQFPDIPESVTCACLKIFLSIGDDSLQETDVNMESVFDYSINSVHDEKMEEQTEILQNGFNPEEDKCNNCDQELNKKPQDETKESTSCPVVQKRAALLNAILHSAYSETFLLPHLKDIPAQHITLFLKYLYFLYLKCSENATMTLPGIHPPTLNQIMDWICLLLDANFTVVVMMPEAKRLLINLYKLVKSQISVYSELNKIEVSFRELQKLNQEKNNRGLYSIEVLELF

[15] = target: proteins of U3A human fibrosarcoma cells (4462 proteins detected) (Homo sapiens, UniProt Q9BZJ0); conditions: protein CRNKL1; U3A cells
[16] = target: proteins of U3A human fibrosarcoma cells (4462 proteins detected) (Homo sapiens, UniProt Q9UH65); conditions: protein SWAP70; soluble abundance after heat, U3A cells
proteins of U3A human fibrosarcoma cells (4462 proteins detected) (Homo sapiens, UniProt Q9UH65), sequence (Q9UH65 whole entry): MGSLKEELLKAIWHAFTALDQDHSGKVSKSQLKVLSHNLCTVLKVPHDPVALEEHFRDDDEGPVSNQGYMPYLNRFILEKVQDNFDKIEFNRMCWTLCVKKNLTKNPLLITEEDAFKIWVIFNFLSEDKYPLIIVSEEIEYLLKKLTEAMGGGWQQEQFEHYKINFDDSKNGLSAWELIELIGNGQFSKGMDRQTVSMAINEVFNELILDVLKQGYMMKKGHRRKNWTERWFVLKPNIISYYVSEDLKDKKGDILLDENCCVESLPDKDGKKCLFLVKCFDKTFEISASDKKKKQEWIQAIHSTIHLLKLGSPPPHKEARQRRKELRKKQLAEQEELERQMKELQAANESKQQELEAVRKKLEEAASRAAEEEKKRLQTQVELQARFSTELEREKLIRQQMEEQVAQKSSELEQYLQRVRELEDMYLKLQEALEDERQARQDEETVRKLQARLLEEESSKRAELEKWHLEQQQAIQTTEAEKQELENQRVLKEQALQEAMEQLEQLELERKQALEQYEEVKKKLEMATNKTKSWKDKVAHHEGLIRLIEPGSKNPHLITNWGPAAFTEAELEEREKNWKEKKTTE

[17] = target: proteins of U3A human fibrosarcoma cells (4462 proteins detected) (Homo sapiens, UniProt Q9UHN1); conditions: protein POLG2; soluble abundance after heat, U3A cells
[18] = target: proteins of U3A human fibrosarcoma cells (4462 proteins detected) (Homo sapiens, UniProt Q7Z5L2); conditions: protein R3HCC1L; U3A, 10 μM, 2 h
[19] = target: proteins of U3A human fibrosarcoma cells (4462 proteins detected) (Homo sapiens, UniProt Q8TAQ2); conditions: protein SMARCC2; soluble abundance after heat, U3A cells
[20] = target: proteins of U3A human fibrosarcoma cells (4462 proteins detected) (Homo sapiens, UniProt O75674); conditions: protein TOM1L1; soluble abundance after heat, U3A cells
[21] = target: proteins of U3A human fibrosarcoma cells (4462 proteins detected) (Homo sapiens, UniProt P52823); conditions: protein STC1; U3A, 10 μM, 2 h
[22] = target: proteins of U3A human fibrosarcoma cells (4462 proteins detected) (Homo sapiens, UniProt O60293); conditions: protein ZFC3H1; U3A cells
[23] = target: proteins of U3A human fibrosarcoma cells (4462 proteins detected) (Homo sapiens, UniProt P78316); conditions: protein NOP14; U3A cells
proteins of U3A human fibrosarcoma cells (4462 proteins detected) (Homo sapiens, UniProt P78316), sequence (P78316 whole entry): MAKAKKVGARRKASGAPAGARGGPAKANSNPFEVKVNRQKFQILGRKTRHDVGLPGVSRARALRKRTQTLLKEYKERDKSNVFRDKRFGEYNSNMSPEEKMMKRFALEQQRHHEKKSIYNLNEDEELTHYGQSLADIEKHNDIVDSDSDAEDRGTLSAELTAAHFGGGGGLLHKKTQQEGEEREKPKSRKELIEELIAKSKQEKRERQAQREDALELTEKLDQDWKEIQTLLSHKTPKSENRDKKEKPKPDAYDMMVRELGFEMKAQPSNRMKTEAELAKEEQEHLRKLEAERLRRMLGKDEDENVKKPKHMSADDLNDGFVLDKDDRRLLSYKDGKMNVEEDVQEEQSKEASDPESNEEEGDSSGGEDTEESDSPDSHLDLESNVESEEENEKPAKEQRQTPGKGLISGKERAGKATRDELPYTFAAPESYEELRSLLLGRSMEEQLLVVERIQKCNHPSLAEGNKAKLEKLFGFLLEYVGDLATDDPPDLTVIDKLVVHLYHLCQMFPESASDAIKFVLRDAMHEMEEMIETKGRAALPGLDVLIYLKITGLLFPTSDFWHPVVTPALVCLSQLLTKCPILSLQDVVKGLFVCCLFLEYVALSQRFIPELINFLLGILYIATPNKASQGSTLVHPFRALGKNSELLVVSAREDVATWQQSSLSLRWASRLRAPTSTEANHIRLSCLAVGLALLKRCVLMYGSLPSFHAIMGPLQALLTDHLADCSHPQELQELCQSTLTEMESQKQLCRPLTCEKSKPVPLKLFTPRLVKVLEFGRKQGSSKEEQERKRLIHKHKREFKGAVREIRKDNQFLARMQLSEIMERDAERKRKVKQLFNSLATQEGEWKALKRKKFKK

[24] = target: proteins of U3A human fibrosarcoma cells (4462 proteins detected) (Homo sapiens, UniProt Q9Y5P4); conditions: protein COL4A3BP; soluble abundance after heat, U3A cells
[25] = target: proteins of U3A human fibrosarcoma cells (4462 proteins detected) (Homo sapiens, UniProt O75663); conditions: protein TIPRL; soluble abundance after heat, U3A cells
proteins of U3A human fibrosarcoma cells (4462 proteins detected) (Homo sapiens, UniProt O75663), sequence (O75663 whole entry): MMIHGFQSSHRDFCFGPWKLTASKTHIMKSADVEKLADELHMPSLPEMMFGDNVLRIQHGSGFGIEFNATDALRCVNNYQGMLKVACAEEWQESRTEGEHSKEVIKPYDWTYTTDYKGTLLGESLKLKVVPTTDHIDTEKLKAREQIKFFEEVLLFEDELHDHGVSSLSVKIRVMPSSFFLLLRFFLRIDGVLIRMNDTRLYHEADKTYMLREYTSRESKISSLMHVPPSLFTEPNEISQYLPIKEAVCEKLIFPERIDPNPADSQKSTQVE

[26] = target: proteins of U3A human fibrosarcoma cells (4462 proteins detected) (Homo sapiens, UniProt Q9BQG0); conditions: protein MYBBP1A; U3A, 10 μM, 2 h
[27] = target: proteins of U3A human fibrosarcoma cells (4462 proteins detected) (Homo sapiens, UniProt P31689); conditions: protein DNAJA1; U3A cells
[28] = target: proteins of U3A human fibrosarcoma cells (4462 proteins detected) (Homo sapiens, UniProt O75449); conditions: protein KATNA1; U3A cells
proteins of U3A human fibrosarcoma cells (4462 proteins detected) (Homo sapiens, UniProt O75449), sequence (O75449 whole entry): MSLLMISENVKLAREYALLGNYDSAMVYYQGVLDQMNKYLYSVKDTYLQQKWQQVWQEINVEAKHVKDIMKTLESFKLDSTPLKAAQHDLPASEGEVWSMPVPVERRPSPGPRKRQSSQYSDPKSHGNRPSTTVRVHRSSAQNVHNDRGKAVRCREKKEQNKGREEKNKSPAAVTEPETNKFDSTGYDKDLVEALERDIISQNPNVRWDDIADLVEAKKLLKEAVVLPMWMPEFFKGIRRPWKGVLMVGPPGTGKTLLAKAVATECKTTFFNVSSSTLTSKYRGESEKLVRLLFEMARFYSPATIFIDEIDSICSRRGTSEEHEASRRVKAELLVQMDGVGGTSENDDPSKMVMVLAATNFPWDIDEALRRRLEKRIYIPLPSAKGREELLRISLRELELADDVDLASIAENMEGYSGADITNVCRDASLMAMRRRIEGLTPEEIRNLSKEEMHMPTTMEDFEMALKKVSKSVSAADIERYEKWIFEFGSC

[29] = target: proteins of U3A human fibrosarcoma cells (4462 proteins detected) (Homo sapiens, UniProt Q9NRW3); conditions: protein APOBEC3C; U3A cells

Structure (SMILES): CCc1nc(N)nc(N)c1-c1ccc(Cl)cc1 [pyrimethamine]
- Log2 (PYR/DMSO) [1]: 0.22
- Log2 (PYR/DMSO) [2]: 0.14
- Log2 (PYR/DMSO), SERPINB7 [3]: -0.19
- Log2 (PYR/DMSO) [4]: -0.05
- Log2 (PYR/DMSO) [5]: 0.17
- Log2 (PYR/DMSO) [6]: 0.18
- Log2 (PYR/DMSO), CTNNA1 [7]: 0.23
- Log2 (PYR/DMSO) [8]: 0.18
- Log2 (PYR/DMSO) [9]: 0.16
- Log2 (PYR/DMSO) [10]: 0.14
- Log2 (PYR/DMSO), EIF1AD [11]: -0.14
- Log2 (PYR/DMSO), GAK [12]: -0.20
- Log2 (PYR/DMSO) [13]: 0.14
- Log2 (PYR/DMSO) [14]: 0.14
- Log2 (PYR/DMSO) [15]: 0.16
- Log2 (PYR/DMSO) [16]: 0.14
- Log2 (PYR/DMSO) [17]: 0.15
- Log2 (PYR/DMSO), R3HCC1L [18]: -0.20
- Log2 (PYR/DMSO) [19]: 0.13
- Log2 (PYR/DMSO) [20]: 0.15
- Log2 (PYR/DMSO), STC1 [21]: 0.25
- Log2 (PYR/DMSO) [22]: 0.18
- Log2 (PYR/DMSO) [23]: 0.15
- Log2 (PYR/DMSO) [24]: 0.13
- Log2 (PYR/DMSO) [25]: 0.14
- Log2 (PYR/DMSO), MYBBP1A [26]: 0.26
- Log2 (PYR/DMSO) [27]: 0.17
- Log2 (PYR/DMSO) [28]: 0.18
- Log2 (PYR/DMSO) [29]: 0.22

Source: paper PMC8800111 (The Journal of Biological Chemistry, 2021)
